In US8013006B2:
Read-outs that look alike come from different tables or passages of the source.

Assays:
[1] = system: HCV replicon; experiment: microbe, parasite or virus in culture; format: cell-based
[2] = Hepatitis C virus, 48 h, read-out: Replicon IC5Os μM
[3] = bicistronic HCV replicon, determined by firefly luciferase signal, cells cultured with compound for 2 days, read-out: Replicon IC5Os

Row | Compound | melting point | IC50 [1, 2] | IC50 [1, 3]
1 | CCOc1ccc2c(C#N)c(-c3ccc(N(C)S(C)(=O)=O)cc3)n(C)c2c1 | 203 to 205 °C |  | 
2 | CCCOC(=O)Nc1ccc(-c2c(C#N)c3ccc(OC(F)F)cc3n2CC2CC2)cc1 | 125 to 126 °C |  | 
3 | CCn1c(-c2ccc(NC(=O)COC)cc2)c(C#N)c2ccc(OC(C)C)cc21 | 169 to 173 °C |  | 
4 | CCn1c(-c2ccc3c(c2)OCO3)c(C#N)c2ccc(OC)cc21 [Compound 22] | 146 to 149 °C | 0.5 to 2 µM | 
5 | CCn1c(NC(=O)c2cccc(C)c2)c(C#N)c2ccc(OC)cc21 [Compound 23] | 234 to 235 °C | < 0.5 µM | 
6 | CCn1c(NC(C)=O)c(C#N)c2ccc([N+](=O)[O-])cc21 [Compound 25, N-(3-cyano-1-ethyl-6-nitro-1H-indol-2-yl)acetamide] | 291 to 293 °C | > 2 µM | 
7 | COc1ccc(-n2cc(C(C)=O)c3ccc(OC)cc32)cc1 [Compound 48] | 138 to 142 °C | 0.5 to 2 µM | 
8 | CCn1c(C#Cc2ccc(N)cc2)c(C#N)c2ccc(OC)cc21 [Compound 69] | 163 to 166 °C | 0.5 to 2 µM | 
9 | CCn1c(-c2ccc(NC(=O)C3CC3)cc2)c(C#N)c2ccc(OC)cc21 [Compound 81] | 209 to 211 °C | < 0.5 µM | 
10 | CCC(=O)Nc1ccc(C#Cc2c(C#N)c3ccc(OC)cc3n2CC)cc1 [Compound 82] | 223 to 228 °C | 0.5 to 2 µM | 
11 | CCCn1c(-c2ccc(NS(=O)(=O)CC)cc2)c(C#N)c2ccc(OC)cc21 [Compound 85] | 163 to 165 °C | < 0.5 µM | 
12 | CCS(=O)(=O)Nc1ccc(-c2c(C#N)c3ccc(OC)cc3n2C2CCC2)cc1 [Compound 86] | 158 to 160 °C | < 0.5 µM | 
13 | CCn1c(-c2ccc(NS(=O)(=O)C(C)C)cc2)c(C#N)c2ccc(OC)cc21 [Compound 88] | 209 to 213 °C | 0.5 to 2 µM | 
14 | CCn1c(C#Cc2ccccc2)c(C#N)c2ccc(C(N)=O)cc21 [Compound 94] | 262 to 265 °C | 0.5 to 2 µM | 
15 | CCn1c(C#Cc2cccc(OC)c2)c(C#N)c2ccc(C(N)=O)cc21 [Compound 95] | 248 to 251 °C | 0.5 to 2 µM | 
16 | CCn1c(C#Cc2ccc(N)cc2)c(C#N)c2ccc(C(N)=O)cc21 [Compound 96] | 243 to 250 °C | 0.5 to 2 µM | 
17 | COc1ccc(-n2cc(C#N)c3ccc(Cl)cc32)cc1 [Compound 119] | 126 to 128 °C | 0.5 to 2 µM | 
18 | CCn1c(C#Cc2ccc(NS(=O)(=O)CC)cc2)c(C#N)c2ccc(OC)cc21 [Compound 131] | 199 to 204 °C | 0.5 to 2 µM | 
19 | CCn1c(C#Cc2ccc(NS(=O)(=O)C(C)C)cc2)c(C#N)c2ccc(OC)cc21 [Compound 132] | 209 to 212 °C | 0.5 to 2 µM | 
20 | CCn1c(C#Cc2ccccc2Cl)c(C#N)c2ccc(OC)cc21 [Compound 134] | 155 to 157 °C | 0.5 to 2 µM | 
21 | CCn1c(C#Cc2ccc(NC(=O)COC)cc2)c(C#N)c2ccc(OC)cc21 [Compound 139] | 191 to 195 °C | 0.5 to 2 µM | 
22 | CCn1c(C#Cc2cccc(C)c2)c(C#N)c2ccc(OC)cc21 [Compound 144] | 97 to 100 °C | 0.5 to 2 µM | 
23 | CCn1c(C#Cc2ccc(C(C)(C)C)cc2)c(C#N)c2ccc(OC)cc21 [Compound 145] | 110 to 113 °C | 0.5 to 2 µM | 
24 | CCn1c(C#Cc2ccc(NC(=O)C3CCC3)cc2)c(C#N)c2ccc(OC)cc21 [Compound 153] | 225 to 228 °C | 0.5 to 2 µM | 
25 | CCn1c(C#Cc2ccc(CNS(=O)(=O)CC)cc2)c(C#N)c2ccc(OC)cc21 [Compound 157, Ethanesulfonic acid [4-(3-cyano-1-ethyl-6-methoxy-1H-indol-2-ylethynyl)-phenyl]methyl amide] | 149 to 153 °C |  | 

Row | Compound | melting point | IC50 [1, 2] | IC50 [1, 3]
26 | CCn1c(C#Cc2ccc(CC#N)cc2)c(C#N)c2ccc(OC)cc21 [Compound 161] | 174 to 176 °C | 0.5 to 2 µM | 
27 | CCn1c(C#Cc2ccc(O)cc2)c(C#N)c2ccc(OC)cc21 [Compound 172] | 221 to 223 °C | 0.5 to 2 µM | 
28 | CCn1c(C#Cc2cccc(N)c2)c(C#N)c2ccc(OC)cc21 [Compound 173] | 150 to 153 °C | 0.5 to 2 µM | 
29 | CCn1c(-c2ccc(CNS(=O)(=O)CCN3CCOCC3)cc2)c(C#N)c2ccc(OC)cc21 [Compound 668, 2-morpholin-4-yl-ethanesulfonic acid [4-(3-cyano-1-ethyl-6-methoxy-1H-indol-2-yl)-phenyl]methyl amide] | 171 to 174 °C |  | 
30 | CCCCOC(=O)Nc1cccc(-c2c(C#N)c3ccc(OC)cc3n2Cc2ccccc2)c1 [Compound 788] |  |  | > 2 µM
31 | CCn1c(-c2ccc(NS(=O)(=O)C(C)C)cc2)c(C#N)c2cc(OC)ccc21 [Compound 790] |  | < 0.5 µM | 
32 | CCn1c(-c2ccc(N)cc2)c(C#N)c2cc(O)ccc21 [Compound 797] |  |  | 0.5 to 2 µM
33 | CCn1c(-c2ccc(NC(=O)c3cc(C)on3)cc2)c(C#N)c2ccc(OC(C)C)cc21 [Compound 798] |  |  | > 2 µM
34 | CCCC(=O)Nc1ccc(-c2c(C#N)c3ccc(OC)cc3n2CC)cc1 [Compound 799] |  | < 0.5 µM | 
35 | CCn1c(-c2ccc(NC(=O)c3ccco3)cc2)c(C#N)c2ccc(OC)cc21 [Compound 803] |  |  | > 2 µM
36 | CCn1c(-c2ccc(NC(=O)c3cc(C)on3)cc2)c(C#N)c2ccc(OC)cc21 [Compound 804] |  |  | > 2 µM
37 | N#Cc1c(-c2ccc(N3CCCC3=O)cc2)n(CC2CC2)c2cc(OC(F)F)ccc12 [Compound 806] |  |  | 0.5 to 2 µM
38 | CCCn1c(-c2ccc(N3CCCC3=O)cc2)c(C#N)c2ccc(OC(F)F)cc21 [Compound 808] |  |  | 0.5 to 2 µM
39 | CC(C)n1c(-c2ccc(N3CCCC3=O)cc2)c(C#N)c2ccc(OC(F)F)cc21 [Compound 809] |  |  | 0.5 to 2 µM
40 | N#Cc1c(-c2ccc(N3CCCC3=O)cc2)n(C2CCC2)c2cc(OC(F)F)ccc12 [Compound 810] |  |  | 0.5 to 2 µM
41 | N#Cc1c(-c2ccc(N)cc2)n(C2CCC2)c2cc(OC(F)F)ccc12 [Compound 811] |  |  | > 2 µM
42 | CCCS(=O)(=O)Nc1ccc(-c2c(C#N)c3ccc(OC(F)F)cc3n2C2CCC2)cc1 [Compound 812] |  |  | 0.5 to 2 µM
43 | N#Cc1c(-c2ccc(NS(=O)(=O)C3CC3)cc2)n(C2CCC2)c2cc(OC(F)F)ccc12 [Compound 813] |  |  | < 0.5 µM
44 | CCCNC(=O)Nc1cccc(-c2c(C#N)c3ccc(OC)cc3n2Cc2ccccc2)c1 [Compound 817] |  |  | > 2 µM
45 | CCn1c(-c2cc(N3CCOC3=O)ccc2F)c(C#N)c2ccc(OC(C)C)cc21 [Compound 820] |  |  | 0.5 to 2 µM
46 | CCn1c(-c2ccc(F)c(N3CCOC3=O)c2)c(C#N)c2ccc(OC(C)C)cc21 [Compound 821] |  |  | > 2 µM
47 | COCCOC(=O)Nc1ccc(-c2c(C#N)c3ccc(OC(F)F)cc3n2C2CCC2)cc1 [Compound 823] |  |  | > 2 µM
48 | CCCn1c(-c2ccc(NC(=O)OC(C)C)cc2)c(C#N)c2ccc(OC(F)F)cc21 [Compound 824] |  |  | > 2 µM
49 | CCCn1c(-c2ccc(NC(=O)OCCOC)cc2)c(C#N)c2ccc(OC(F)F)cc21 [Compound 825] |  |  | > 2 µM
50 | CCCn1c(-c2ccc(NC(=O)OCCF)cc2)c(C#N)c2ccc(OC(F)F)cc21 [Compound 826] |  |  | 0.5 to 2 µM

Row | Compound | melting point | IC50 [1, 2] | IC50 [1, 3]
51 | N#Cc1c(-c2ccc(N3CCCS3(=O)=O)cc2)[nH]c2cc(OC(F)(F)F)ccc12 [Compound 829] |  |  | 0.5 to 2 µM
52 | CCn1c(-c2ccc(OC(F)F)cc2)c(C#N)c2ccc(NS(=O)(=O)CC)cc21 [Compound 830] |  |  | 0.5 to 2 µM
53 | CCCS(=O)(=O)Nc1ccc2c(C#N)c(-c3ccc(OCC)cc3)n(CC)c2c1 [Compound 836] |  |  | > 2 µM
54 | CCOc1ccc(-c2c(C#N)c3ccc(NS(=O)(=O)C4CC4)cc3n2CC)cc1 [Compound 837] |  |  | > 2 µM
55 | CCn1c(-c2ccc(N(C)S(=O)(=O)C3CC3)cc2)c(C#N)c2ccc(OCCF)cc21 [Compound 840] |  |  | > 2 µM
56 | CCCS(=O)(=O)N1CCN(c2c(C#N)c3ccc(C(F)(F)F)cc3n2CC)CC1 [Compound 841] |  |  | > 2 µM
57 | CCn1c(N2CCN(S(=O)(=O)c3ccccc3)CC2)c(C#N)c2ccc(C(F)(F)F)cc21 [Compound 843] |  |  | > 2 µM
58 | CCCn1c(-c2ccc(NC(=O)NC(C)C)cc2)c(C#N)c2ccc(OC)cc21 [Compound 846] |  |  | 0.5 to 2 µM
59 | CCCCNC(=O)Nc1ccc(-c2c(C#N)c3ccc(OC)cc3n2CCC)cc1 [Compound 847] |  |  | 0.5 to 2 µM
60 | CCCn1c(-c2ccc(NC(=O)OC)cc2)c(C#N)c2ccc(OC)cc21 [Compound 849] |  |  | 0.5 to 2 µM
61 | CCCn1c(-c2ccc(N(CC)S(=O)(=O)CC)cc2)c(C#N)c2ccc(OC)cc21 [Compound 852] |  |  | 0.5 to 2 µM
62 | CCn1c(-c2ccc(C(=O)N3CC3)cc2)c(C#N)c2ccc(OC)cc21 [Compound 853] |  |  | < 0.5 µM
63 | CCn1c(-c2ccc(NC(=O)C3CC3)cc2)c(C#N)c2ccccc21 [Compound 854] |  | 0.5 to 2 µM | 
64 | CCn1c(-c2ccc(NC(=O)C(C)C)cc2)c(C#N)c2ccccc21 [Compound 855] |  | 0.5 to 2 µM | 
65 | CCn1c(-c2ccc(NC(=O)CCl)cc2)c(C#N)c2cc(OC)ccc21 [Compound 856] |  |  | > 2 µM
66 | CCn1c(-c2ccc(NC(=O)COC)cc2)c(C#N)c2cc(OC)ccc21 [Compound 857] |  |  | 0.5 to 2 µM
67 | CCn1c(-c2ccc(NC(=O)C(C)C)cc2)c(C#N)c2cc(OC)ccc21 [Compound 858] |  | < 0.5 µM | 
68 | CCn1c(-c2ccc(C(=O)NC)cc2)c(C#N)c2cc(OC)ccc21 [Compound 860] |  |  | 0.5 to 2 µM
69 | CCn1c(-c2ccc(C(=O)N3CC3)cc2)c(C#N)c2cc(OC)ccc21 [Compound 861] |  | 0.5 to 2 µM | 
70 | CCn1c(-c2ccc(C(=O)N3CCC3)cc2)c(C#N)c2cc(OC)ccc21 [Compound 862] |  |  | > 2 µM
71 | CCn1c(-c2ccc(N3CCOC3=O)cc2)c(C#N)c2ccc(OC)cc21 [Compound 863] |  | 0.5 to 2 µM | 
72 | CCn1c(-c2cccc(N3CCOC3=O)c2)c(C#N)c2ccc(OC)cc21 [Compound 864] |  |  | 0.5 to 2 µM
73 | CCCn1c(-c2ccc(N3CCCS3(=O)=O)cc2)c(C=O)c2ccc(OC)cc21 [Compound 865] |  |  | > 2 µM
